In patent US20060258578A1, “Pharmaceutical composition” (The University of Zurich, priority 2005, published 2006):
“Also recorded” adds a separate entry of the source.

Tests used:
[1] = system: MC3T3-E1 cells; assay: maturation of preosteoblastic cells determined by alkaline phosphatase activity; type: cell-based; settings: for effect on maturation of MC3T3-E1 cells (alkaline phosphatase activity), solvent comparison: increasing amounts of solvent, triacetin 0,1 to 6 mM (FIG. 3)
Description: (§1) MC3T3-E1 cells were grown in an alpha-modified Minimum Essential Medium (Life Technologies, Inc., Grand Island, N.Y.) containing 10% fetal calf serum (Life Technologies, Inc.), 50 μg/ml gentamycin, and 50 μg/ml ascorbic acid. C3H10T1/2 cells were grown in basal medium Eagle, and 50 μg/ml gentamycin. To examine the action of triacetin on both cell lines, 1×10^5 cells per well were plated in 6-well plates and triacetin subsequently added. Medium exchange was performed after 3 days and alkaline phosphatase (ALP) was determined according to Lowry, O. et al. [J. Biol. Chem. 207 (1954) 19-37]: p-nitrophenol liberated was converted to p-nitrophenylate by adding 400 μl of 1 M NaOH, which was quantitated by measuring the absorbance at 410 nm (epsilon=17500/mol×cm). Alkaline phosphatase activity was normalized to total protein and expressed as nmol nitrophenylate generated per min per mg protein.
First, to verify the osteoinductive activity of triacetin an embryonic, murine, mesenchymal stem cell line C3H10T1/2 and a preosteoblastic cell line MC3T3-E1 were used and cultured as described above. C3H10T1/2 cells can differentiate into cartilage, bone or adipose cells, whereas MC3T3-E1 produces and releases autologous BMP. Alkaline phosphatase activity was used as a marker for the differentiation into the osteoblastic lineage.
Additionally, the effect of various plasticizers/solvents regarding their osteogenetic effect was compared to that of triacetin. MC3T3-E1 cells were grown as described above and treated with increasing amounts of different solvents and the effect on the maturation of MC3T3-E1 cells determined after 6 days by alkaline phosphatase activity.
To determine the effect of external BMP, C3H10T1/2 cells and MC3T3-E1 cells were plated at day one in 4 ml medium and ALP determination performed on day 6. On day 1 rhBMP was added to the cells from a stock solution of 2 mg/ml rhBMP-2 in 1 mM HCl to a concentration of 1 μg/ml. triacetin to a final concentration of 2 and 4 mM was added to the cells at the same time point from a stock solution of 200 mM triacetin in respective medium. After application triacetin and rhBMP was mixed by gently swirling the entire 6 well plate. In a separate experiment, the cells were treated with triacetin only.
In a similar manner, the effect of external rhBMP-4 on the maturation of MC3T3-E1 cells was determined by alkaline phosphatase activity. MC3T3-E1 cells were treated with triacetin in the presence or absence of 60 ng rhBMP-4/ml of the medium.
MC3T3-E1 cells were treated with triacetin in the presence or absence of 60 ng rhBMP-7/ml of the medium.

[2] = system: MC3T3-E1 cells; assay: mineralization visualized by Alizarin red-S staining; type: cell-based; settings: MC3T3-E1, 4 weeks, 5 mM glycerol phosphate, 2.0 and 4.0 mM triacetin
Description: FIG. 2A: MC3T3-E1 cells treated with increasing amounts of triacetin and the maturation determined after 6 days by alkaline phosphatase activity. FIG. 2B: Mineralization by MC3T3-E1 cells seeded on a 6-well plate visualized by Alizarin S-staining. The MC3T3-E1 cells were cultured for 4 weeks in the presence of 5 mM glycerol phosphate. From the left: no triacetin was added, 2.0 mM triacetin was added, 4.0 mM triacetin.
Mineralization was determined in MC3T3-E1 cells grown in the same medium supplemented with 5 mM glycerol phosphate and 1 μg/ml rhBMP-2 or 60 ng/ml of rhBMP-4 of rhBMP-7. Alizarin red-S staining was performed after 4 weeks according to Bodine, P. V. N., et al. [J. Bone Mineral Res. 11 (1996) 806-819].

[3] = system: C3H10T1/2 cells; assay: differentiation of mesenchymal stem cells towards osteoblastic lineage determined by alkaline phosphatase activity; type: cell-based, murine
Description: as §1
First, to verify the osteoinductive activity of triacetin an embryonic, murine, mesenchymal stem cell line C3H10T1/2 and a preosteoblastic cell line MC3T3-E1 were used and cultured as described above. C3H10T1/2 cells can differentiate into cartilage, bone or adipose cells, whereas MC3T3-E1 produces and releases autologous BMP. […]
The differentiation of the mesenchymal cell like cell line (C3H10T1/2) towards an osteoblastic lineage was determined by alkaline phosphatase activity. […]

`CO` [methanol, reference compound] was tested, and the “effect on maturation of MC3T3-E1 cells (alkaline phosphatase activity), solvent comparison” value (“effect on maturation of MC3T3-E1 cells” below) ([1]; after 6 days) was “no positive effect”.

In the case of `C[S+](C)[O-]` [dimethylsulfoxide, reference compound], the “effect on maturation of MC3T3-E1 cells” value ([1]; after 6 days) is reported as “no positive effect”.

`CN(C)C=O` [N,N-dimethylformamide, reference compound] was tested, and the “effect on maturation of MC3T3-E1 cells” value ([1]; after 6 days) was “no positive effect”.

For `CCO` [ethanol, reference compound], the “effect on maturation of MC3T3-E1 cells” value ([1]; after 6 days) was “no positive effect”.

With `CC(=O)OCC(COC(C)=O)OC(C)=O` [triacetin, glyceryl triacetate] the “increase of alkaline phosphatase activity” value ([1]; MC3T3-E1, 0,0 to 4 mM triacetin, after 6 days) was 2.0-7.0 factor, the “synergistic effect with rhBMP4 on maturation (alkaline phosphatase activity)” value ([1]; MC3T3-E1, triacetin with 60 ng rhBMP4/ml (FIG. 5)) was “synergistic effect” and the “synergistic effect with rhBMP-7 on maturation (alkaline phosphatase activity)” value ([1]; MC3T3-E1, triacetin with 60 ng rhBMP-7/ml (FIG. 6)) was “synergistic bone forming effect”. The “synergistic effect with rhBMP-2 on maturation (alkaline phosphatase activity)” value ([1]; MC3T3-E1, triacetin with 1 μg rhBMP-2/ml (FIG. 4)) was “synergistic effect”, the “effect on maturation of MC3T3-E1 cells” value ([1]; after 6 days) was “increases in a concentration dependent manner” and the “mineralisation by alizarin-S-staining” value [2] was “increased mineralisation”. For the same compound, the “alkaline phosphatase activity, triacetin alone” value ([3]; C3H10T1/2, 2 mM and 4 mM, absence of rhBMP) was “increase in alkaline phosphatase activity; also recorded: able to induce alkaline phosphatase activity” and the “synergistic effect with rhBMP-2 on alkaline phosphatase activity” value ([3]; C3H10T1/2, triacetin 2 and 4 mM with 1 μg rhBMP-2/ml, day 6) was “further enhanced; also recorded: works synergistically”.
